PubChem BioAssay AID2740 (NMMLSC, 2010)
The source made the active and inactive calls.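 Rule for the calls: active = compounds whose fitted half-maximal concentration for changing the GFP signal is at or below a set limit; inactive = the rest.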

assay: TOR pathway RPL19A-GFP modulators, concentration series – cell-based, S. cerevisiae, flow cytometry, MLPCN hits, dose response (AID 2740);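 note: background is signal of the same compound in parental non-GFP s288c yeast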; settings: S. cerevisiae RPL19A-GFP strain, flow cytometry fluorescence, 3 h; at 33 µM (top of the series)

Question: For `O=C1Nc2ccc(Br)cc2/C1=C/C(=O)c1ccc2c(c1)OCO2`, which GFP fluorescence, lower = active (kMESF (background-subtracted)) is on record?
Answer: Its GFP fluorescence, lower = active (kMESF (background-subtracted)) is 40.6 (inactive).

Question: Which GFP fluorescence, lower = active (kMESF (background-subtracted)) does the source give for `COc1ccccc1N=Cc1nc(-c2ccccc2)oc1OC(C)=O` here?
Answer: Its GFP fluorescence, lower = active (kMESF (background-subtracted)) is 46.8 (inactive).

Question: With `COc1cc(/C=C2/C(=O)c3cccc([N+](=O)[O-])c3C2=O)c(Br)cc1O` as the compound, how does the GFP fluorescence, lower = active (kMESF (background-subtracted)) read?
Answer: The GFP fluorescence, lower = active (kMESF (background-subtracted)) was 43.9 (inactive).

Question: With `CCCCCCCCCCCCCCCC[n+]1cccc2ccccc21` as the compound, how does the GFP fluorescence, lower = active (kMESF (background-subtracted)) read?
Answer: Its GFP fluorescence, lower = active (kMESF (background-subtracted)) is 1.36 (inactive).

Question: Which GFP fluorescence, lower = active (kMESF (background-subtracted)) does the source give for `O=C1c2ccccc2C(=O)N1OS(=O)(=O)c1ccccc1` here?
Answer: The GFP fluorescence, lower = active (kMESF (background-subtracted)) was 43.2 (inactive).

Question: Which GFP fluorescence, lower = active (kMESF (background-subtracted)) does the source give for `CN(C)c1ccc(N=Cc2nc(-c3ccccc3)oc2OC(=O)c2cccc(Cl)c2)cc1` here?
Answer: Its GFP fluorescence, lower = active (kMESF (background-subtracted)) is 44.1 (inactive).

Question: For `Cc1ccc(C(c2cc(Cl)c3cccnc3c2O)N2CCN(C)CC2)cc1` (stereo not given), which GFP fluorescence, lower = active (kMESF (background-subtracted)) is on record?
Answer: The GFP fluorescence, lower = active (kMESF (background-subtracted)) was 29.8 (inactive).

Question: Which GFP fluorescence, lower = active (kMESF (background-subtracted)) does the source give for `COCCN1C(=O)/C(=C/c2ccc(N3CCCC3)cc2C)SC1=S` here?
Answer: Its GFP fluorescence, lower = active (kMESF (background-subtracted)) is 43 (inactive).

Question: With `CCCOc1ccc(C(=O)NNC(=S)NC(=O)c2ccccc2)cc1` as the compound, how does the GFP fluorescence, lower = active (kMESF (background-subtracted)) read?
Answer: The GFP fluorescence, lower = active (kMESF (background-subtracted)) was 45.7 (inactive).

Question: Which GFP fluorescence, lower = active (kMESF (background-subtracted)) does the source give for `Cc1cccc2c1NC(=O)/C2=C\C(=O)c1cccs1` here?
Answer: The GFP fluorescence, lower = active (kMESF (background-subtracted)) was 34.4 (inactive).

Question: Which GFP fluorescence, lower = active (kMESF (background-subtracted)) does the source give for `O=S1(=O)C=C(Sc2nc3ccccc3s2)c2ccccc21` here?
Answer: The GFP fluorescence, lower = active (kMESF (background-subtracted)) was 36 (inactive).

Question: For `CCC1(c2ccccc2)ON(c2c(Br)cccc2Br)C1=O` (stereo not given), which GFP fluorescence, lower = active (kMESF (background-subtracted)) is on record?
Answer: The GFP fluorescence, lower = active (kMESF (background-subtracted)) was 34.8 (inactive).

Question: With `Cc1ccc(S(=O)(=O)N2CCCC2C(=O)NCc2ccncc2)cc1` (stereo not given) as the compound, how does the GFP fluorescence, lower = active (kMESF (background-subtracted)) read?
Answer: The GFP fluorescence, lower = active (kMESF (background-subtracted)) was 39.8 (inactive).

Question: With `CCC(=O)Nc1ccc(NC(=O)c2cc3ccccc3o2)cc1` as the compound, how does the GFP fluorescence, lower = active (kMESF (background-subtracted)) read?
Answer: The GFP fluorescence, lower = active (kMESF (background-subtracted)) was 39.4 (inactive).

Question: For `CCOc1ccccc1/C=c1\sc2ncnn2c1=O`, which GFP fluorescence, lower = active (kMESF (background-subtracted)) is on record?
Answer: Its GFP fluorescence, lower = active (kMESF (background-subtracted)) is 30.1 (inactive).

Question: With `Cn1c(=O)c(C(=O)NNC(=O)c2ccc(Br)cc2)c(O)c2ccccc21` as the compound, how does the GFP fluorescence, lower = active (kMESF (background-subtracted)) read?
Answer: Its GFP fluorescence, lower = active (kMESF (background-subtracted)) is 22.3 (inactive).

Question: With `CCc1ccc(/C=C/C(=O)c2cc(Br)ccc(=O)c2O)cc1` as the compound, how does the GFP fluorescence, lower = active (kMESF (background-subtracted)) read?
Answer: The GFP fluorescence, lower = active (kMESF (background-subtracted)) was 40.6 (inactive).

Question: For `CCn1c(/C=C/c2ccc([N+](=O)[O-])o2)nc2ccccc2c1=O`, which GFP fluorescence, lower = active (kMESF (background-subtracted)) is on record?
Answer: The GFP fluorescence, lower = active (kMESF (background-subtracted)) was -37.1 (inactive).

Question: Which GFP fluorescence, lower = active (kMESF (background-subtracted)) does the source give for `O=S(=O)(/N=C(/Sc1ccccc1)c1ccccc1)c1ccccc1` here?
Answer: The GFP fluorescence, lower = active (kMESF (background-subtracted)) was 34.5 (inactive).

Question: With `CC(=O)Oc1ccc(/C=c2\sc3ncnn3c2=O)cc1` as the compound, how does the GFP fluorescence, lower = active (kMESF (background-subtracted)) read?
Answer: The GFP fluorescence, lower = active (kMESF (background-subtracted)) was 50 (inactive).

Question: With `COc1cc(N2C(=O)C=CC2=O)c(OC)cc1Cl` as the compound, how does the GFP fluorescence, lower = active (kMESF (background-subtracted)) read?
Answer: The GFP fluorescence, lower = active (kMESF (background-subtracted)) was 18.8 (inactive).

Question: With `Cc1ccc(C(=O)NNC(=S)NC(=O)COc2ccccc2)cc1` as the compound, how does the GFP fluorescence, lower = active (kMESF (background-subtracted)) read?
Answer: The GFP fluorescence, lower = active (kMESF (background-subtracted)) was 41.1 (inactive).

Question: With `Cc1ccc(/C=N/Nc2ncc(Cl)cc2Cl)s1` as the compound, how does the GFP fluorescence, lower = active (kMESF (background-subtracted)) read?
Answer: The GFP fluorescence, lower = active (kMESF (background-subtracted)) was 43.1 (inactive).

Question: For `Cc1ccc(C(=O)/C=C/C(=O)c2ccc(C)cc2)cc1`, which GFP fluorescence, lower = active (kMESF (background-subtracted)) is on record?
Answer: Its GFP fluorescence, lower = active (kMESF (background-subtracted)) is 47.5 (inactive).

Question: With `COc1ccc(C(c2c(C)[nH]n(C(N)=S)c2=O)C(C#N)C#N)cc1` (stereo not given) as the compound, how does the GFP fluorescence, lower = active (kMESF (background-subtracted)) read?
Answer: Its GFP fluorescence, lower = active (kMESF (background-subtracted)) is 24.7 (inactive).

Question: With `COc1ccc(N2CCN(C(=O)c3ccccc3)CC2)c([N+](=O)[O-])c1` as the compound, how does the GFP fluorescence, lower = active (kMESF (background-subtracted)) read?
Answer: The GFP fluorescence, lower = active (kMESF (background-subtracted)) was 47.4 (inactive).

Question: With `CS(=O)(=O)c1nc(-c2ccccc2)cc(C(F)(F)F)n1` as the compound, how does the GFP fluorescence, lower = active (kMESF (background-subtracted)) read?
Answer: The GFP fluorescence, lower = active (kMESF (background-subtracted)) was 31.9 (inactive).

Question: With `C#CCOc1c(Br)cc(/C=C2/C(=O)ON=C2C)cc1OC` as the compound, how does the GFP fluorescence, lower = active (kMESF (background-subtracted)) read?
Answer: Its GFP fluorescence, lower = active (kMESF (background-subtracted)) is 32.9 (inactive).

Question: For `Cc1cc2ccccn2c1C(=O)c1ccc([N+](=O)[O-])o1`, which GFP fluorescence, lower = active (kMESF (background-subtracted)) is on record?
Answer: Its GFP fluorescence, lower = active (kMESF (background-subtracted)) is 20.7 (inactive).

Question: For `CCc1ccc(C(=O)/C=C/c2ccc([N+](=O)[O-])o2)cc1`, which GFP fluorescence, lower = active (kMESF (background-subtracted)) is on record?
Answer: Its GFP fluorescence, lower = active (kMESF (background-subtracted)) is 48.7 (inactive).
